# Values joined by “and” are separate entries in the source; they are usually repeats but may differ in a detail not shown here. Identical values can stand only once.
# Legend:
# human melanocytes = assay: melanin content in L-tyrosine-stimulated human melanocytes; format: cell-based; conditions: 3 days, L-tyrosine 2 mM, stimulated control = 100%
# Description: (§1) With the aim of studying the inhibition of molecules in melanin, an in vitro assay was conducted on human melanocytes using similar conditions to those described in the tyrosinase inhibition assay. L-tyrosine is used to stimulate melanogenic activity in cells with the aim of extracting the melanin. Here, only the molecules with the best tyrosinase-inhibiting activity were tested (formulas (II) and (III)). In this experiment, the concentration of molecules used is the highest possible taking into account the melanocyte cytotoxicity value, 1.25 mM for the molecule of formula (II) and 0.33 mM for the molecule of formula (III).
# Thus, human melanocytes are cultured in culture medium (#PCS-200-013, ATCC). L-tyrosine (2 mM) was added together with the molecule treatment. All the conditions were prepared in triplicate. After incubating the cells with the treatments for 3 days, they were trypsinised and lysated in 1M NaOH. Cell lysate absorbance at 340 nm was measured using a spectrophotometer. The absorbance value is directly proportional to melanin content.
# tyrosinase = target: T1, tyrosinase (Homo sapiens, UniProt P14679); assay: tyrosinase activity in lysate of L-tyrosine-stimulated human melanocytes (L-DOPA/MBTH); format: biochemical; conditions: L-tyrosine-stimulated control = 100%
# T1 construct: the cells were trypsinised and lysated in PBS pH 7.0 with 1% Triton X-100; host or cells: human melanocytes (primary), stimulated with 2 mM L-tyrosine; Triton X-100 lysate
# T1 sequence (P14679 19-529): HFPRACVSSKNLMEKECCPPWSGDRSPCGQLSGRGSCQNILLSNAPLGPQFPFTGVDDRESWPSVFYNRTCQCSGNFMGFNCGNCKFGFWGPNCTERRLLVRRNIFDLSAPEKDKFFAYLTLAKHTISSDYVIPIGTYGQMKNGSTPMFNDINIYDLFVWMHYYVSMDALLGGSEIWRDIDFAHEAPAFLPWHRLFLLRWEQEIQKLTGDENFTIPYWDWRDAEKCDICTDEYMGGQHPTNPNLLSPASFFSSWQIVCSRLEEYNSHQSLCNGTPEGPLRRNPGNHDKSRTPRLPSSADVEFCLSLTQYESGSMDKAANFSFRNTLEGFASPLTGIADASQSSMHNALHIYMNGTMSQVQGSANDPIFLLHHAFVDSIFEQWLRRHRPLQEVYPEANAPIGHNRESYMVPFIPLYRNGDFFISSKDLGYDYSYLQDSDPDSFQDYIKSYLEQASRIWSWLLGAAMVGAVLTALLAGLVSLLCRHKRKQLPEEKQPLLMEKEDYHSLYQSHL
# Description: Given the results, an in vitro assay was conducted on human melanocytes. In order to stimulate melanogenic activity in the cells they were treated with L-tyrosine. This compound, in addition to being a substrate of the tyrosinase enzyme, key to melanin synthesis, is capable of activating cell receptors that activate the melanogenesis-regulating signalling pathways (Slominski A, et al. L-tyrosine and L-dihydroxyphenylalanine as hormone-like regulators of melanocyte functions. Pigment Cell Melanoma Res. 2012; 25(1):14-27). This condition is aimed at stimulating melanogenesis in melanocytes for the purpose of extracting tyrosinase and testing the effect of the molecules of the invention.
# Thus, human melanocytes were cultured in culture medium (#PCS-200-013, ATCC) and L-tyrosine (2 mM) for 3 days. After the stimulation treatment, the cells were trypsinised and lysated in PBS pH 7.0 with 1% Triton X-100. The cell lysate, which contains tyrosinase, was incubated together with the molecules of the invention at different concentrations (0.1 and 1 mM), L-DOPA and MBTH (Winder A J and Harris H. New assays for the tyrosine hydroxylase and dopa oxidase activities of tyrosinase. Eur. J. Biochem. 1991; 198(2):317-26). L-DOPA acts as a substrate for tyrosinase in the enzyme reaction and MBTH is a compound that bonds to the […] formed from the oxidation of L-DOPA, generating a colour complex. Each of the conditions used was prepared in triplicate. Lastly, absorbance at 492 nm was monitored using a spectrophotometer every 10 min for 2-5 h.
# melanocyte = melanocyte cytotoxicity; format: cell-based; conditions: human melanocytes
# Description: as §1
# [1] = water solubility compared to DMSO by HPLC; format: physicochemical; conditions: 50 mg/ml; for Percentage of water solubility compared to the samples dissolved in DMSO: 1 hour stirring at room temperature, filtered, HPLC
# Description: Solutions are prepared in DMSO and in water for each of the molecules. All the samples are prepared at a final concentration of 50 mg/ml. After stirring for 1 hour at room temperature, the samples are filtered and a HPLC is performed.
# In order to calculate the percentage of solubility of each of the molecules, the area of the peak of the sample dissolved in water and in DMSO obtained by HPLC is determined. The results are given as a percentage of solubility of the compound dissolved in water in the compound dissolved in DMSO.
Compound,melanin content (human melanocytes; 1.25 mM),Percentage of tyrosinase activity (tyrosinase; 0.1 mM),Percentage of tyrosinase activity (tyrosinase; 1 mM),highest possible concentration taking into account the melanocyte cytotoxicity value (melanocyte),water solubility (in words) [1],Percentage of water solubility compared to the samples dissolved in DMSO [1],melanin content (human melanocytes; 0.33 mM)
"O=C(/C=C/c1ccc(O)c(S(=O)(=O)O)c1)c1ccc(O)c(S(=O)(=O)O)c1 [II, 5-[(E)-2-(4-hydroxy-3-sulfobenzoyl)-1-ethenyl]-2-hydroxybenzenesulfonic Acid]",78±7%,97% and 97 ± 0%,55% and 55 ± 1%,1.25 mM,highly soluble,81%,
"O=C(/C=C/c1ccc(O)cc1)c1ccc(O)c(S(=O)(=O)O)c1 [III, 5-[(E)-3-(p-hydroxyphenyl)acryloyl]-2-hydroxybenzenesulfonic Acid]",,82% and 82 ± 2%,44% and 44 ± 1%,0.33 mM,highly soluble,84%,49±7%
"O=C(/C=C/c1ccc(O)c(S(=O)(=O)[O-])c1)c1ccc(O)c(S(=O)(=O)[O-])c1.[K+].[K+] [IV M = K, 5-[(E)-2-(4-hydroxy-3-sulfonatebenzoyl)-1-ethenyl]-2-hydroxybenzenesulfonate, Dipotassium Salt]",,>97%,97 ± 1%,,,100%,
"O=C(/C=C/c1ccc(O)cc1)c1ccc(O)cc1 [Reference molecule, (E)-1,3-bis(p-hydroxyphenyl)-2-propen-1-one, reference compound]",,97 ± 3%,84 ± 4%,,fully water soluble,0%,
"CCN(CC)CC.O=C(/C=C/c1ccc(O)cc1)c1ccc(O)c(S(=O)(=O)O)c1 [V M = (C2H5)3N, 5-[(E)-3-(p-hydroxyphenyl)acryloyl]-2-triethylammonium hydroxybenzenesulfonate]",,>97%,83 ± 0%,,,100%,
"O=C(/C=C/c1ccc(O)cc1)c1ccc(O)c(S(=O)(=O)[O-])c1.[Na+] [V M = Na, 5-[(E)-3-(p-hydroxyphenyl)acryloyl]-2-sodium Hydroxybenzenesulfonate]",,>97%,82 ± 3%,,,100%,
"O=C(CCc1ccc(O)c(S(=O)(=O)[O-])c1)c1ccc(O)c(S(=O)(=O)[O-])c1.[K+].[K+] [VI M = K, 2-hydroxy-5-[2-(4-hydroxy-3-sulfonatebenzoyl)ethyl]-benzenesulfonate, Dipotassium Salt]",,>97%,91 ± 3%,,,100%,
